Test results: PMC12406203 (Journal of Medicinal Chemistry, 2025)

Key:
Assay in all cases: KINOMEscan
Type in all cases: binding
[1] = molecular target: T1, PIM3 (Homo sapiens, UniProt Q86V86)
T1 construct: purchased Eurofins DiscoverX, LLC; host or cells: E. coli BL21-derived host (T7 phage) or HEK-293

[2] = molecular target: T2, GSK3B (Homo sapiens, UniProt P49841)
T2 construct: purchased Eurofins DiscoverX, LLC; host or cells: E. coli (T7 phage) or HEK-293

[3] = molecular target: T3, CSF1R (Homo sapiens, UniProt P07333)
T3 construct: purchased Eurofins DiscoverX, LLC; host or cells: E. coli (T7 phage) or HEK-293

[4] = molecular target: T4, PAK4 (Homo sapiens, UniProt O96013)
T4 construct: purchased Eurofins DiscoverX, LLC; host or cells: E. coli BL21-derived host (T7 phage) or HEK-293

[5] = molecular target: T5, CDK11 (Homo sapiens, UniProt Q9BWU1)
T5 construct: purchased Eurofins DiscoverX, LLC; host or cells: E. coli BL21-derived (T7 phage) or HEK-293

[6] = molecular target: T6, PLK3 (Homo sapiens, UniProt Q9H4B4)
T6 construct: purchased Eurofins DiscoverX, LLC; host or cells: E. coli BL21-derived host (T7 phage) or HEK-293

[7] = molecular target: T7, INSR (Homo sapiens, UniProt P06213)
T7 construct: purchased Eurofins DiscoverX, LLC; host or cells: E. coli (T7 phage) or HEK-293

[8] = molecular target: T8, CDK7 (Homo sapiens, UniProt P50613)
T8 construct: purchased Eurofins DiscoverX, LLC; host or cells: E. coli BL21-derived (T7 phage) or HEK-293

[9] = molecular target: T9, AURKB (Homo sapiens, UniProt Q96GD4)
T9 construct: purchased Eurofins DiscoverX, LLC; host or cells: E. coli BL21-derived (T7 phage) or HEK-293

[10] = molecular target: T10, ERK 2 (Homo sapiens, UniProt P28482)
T10 construct: purchased Eurofins DiscoverX, LLC; host or cells: E. coli (T7 phage) or HEK-293

[11] = molecular target: T11, ERK1 (Homo sapiens, UniProt P27361)
T11 construct: purchased Eurofins DiscoverX, LLC; host or cells: E. coli (T7 phage) or HEK-293

[12] = molecular target: T12, MLK1 (Homo sapiens, UniProt P80192)
T12 construct: purchased Eurofins DiscoverX, LLC; host or cells: E. coli (BL21-derived, T7 phage) or HEK-293

[13] = molecular target: T13, TRKA (Homo sapiens, UniProt P04629)
T13 construct: purchased Eurofins DiscoverX, LLC; host or cells: E. coli BL21-derived host (T7 phage) or HEK-293

[14] = molecular target: T14, RSK2 (Kin.Dom.1-N-terminal) (Homo sapiens, UniProt P51812)
T14 construct: RSK2 (Kin.Dom.1-; purchased Eurofins DiscoverX, LLC; host or cells: E. coli BL21-derived host (T7 phage) or HEK-293

[15] = molecular target: T15, DCAMKL1 (Homo sapiens, UniProt O15075)
T15 construct: purchased Eurofins DiscoverX, LLC; host or cells: E. coli (T7 phage) or HEK-293
T15 sequence (O15075 1-740): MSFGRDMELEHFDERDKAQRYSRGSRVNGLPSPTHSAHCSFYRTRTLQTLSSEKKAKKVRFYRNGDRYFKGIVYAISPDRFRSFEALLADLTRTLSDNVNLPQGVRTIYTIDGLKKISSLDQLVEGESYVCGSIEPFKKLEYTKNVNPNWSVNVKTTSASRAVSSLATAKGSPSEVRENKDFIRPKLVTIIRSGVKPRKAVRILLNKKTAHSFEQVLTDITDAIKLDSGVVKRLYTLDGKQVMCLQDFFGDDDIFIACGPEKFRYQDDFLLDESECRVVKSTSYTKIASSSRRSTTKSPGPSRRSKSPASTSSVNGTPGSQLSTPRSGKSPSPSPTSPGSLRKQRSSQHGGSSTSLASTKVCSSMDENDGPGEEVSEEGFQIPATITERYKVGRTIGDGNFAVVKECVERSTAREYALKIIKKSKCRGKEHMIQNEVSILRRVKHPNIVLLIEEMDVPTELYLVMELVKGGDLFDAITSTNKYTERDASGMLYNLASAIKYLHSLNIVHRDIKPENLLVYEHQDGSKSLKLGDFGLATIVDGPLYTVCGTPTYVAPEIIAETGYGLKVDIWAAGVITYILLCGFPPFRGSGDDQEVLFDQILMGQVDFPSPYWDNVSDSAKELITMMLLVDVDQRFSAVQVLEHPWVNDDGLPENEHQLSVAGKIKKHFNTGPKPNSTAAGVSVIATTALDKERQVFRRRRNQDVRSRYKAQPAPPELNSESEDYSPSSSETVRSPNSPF

T13 sequence (P04629 33-796): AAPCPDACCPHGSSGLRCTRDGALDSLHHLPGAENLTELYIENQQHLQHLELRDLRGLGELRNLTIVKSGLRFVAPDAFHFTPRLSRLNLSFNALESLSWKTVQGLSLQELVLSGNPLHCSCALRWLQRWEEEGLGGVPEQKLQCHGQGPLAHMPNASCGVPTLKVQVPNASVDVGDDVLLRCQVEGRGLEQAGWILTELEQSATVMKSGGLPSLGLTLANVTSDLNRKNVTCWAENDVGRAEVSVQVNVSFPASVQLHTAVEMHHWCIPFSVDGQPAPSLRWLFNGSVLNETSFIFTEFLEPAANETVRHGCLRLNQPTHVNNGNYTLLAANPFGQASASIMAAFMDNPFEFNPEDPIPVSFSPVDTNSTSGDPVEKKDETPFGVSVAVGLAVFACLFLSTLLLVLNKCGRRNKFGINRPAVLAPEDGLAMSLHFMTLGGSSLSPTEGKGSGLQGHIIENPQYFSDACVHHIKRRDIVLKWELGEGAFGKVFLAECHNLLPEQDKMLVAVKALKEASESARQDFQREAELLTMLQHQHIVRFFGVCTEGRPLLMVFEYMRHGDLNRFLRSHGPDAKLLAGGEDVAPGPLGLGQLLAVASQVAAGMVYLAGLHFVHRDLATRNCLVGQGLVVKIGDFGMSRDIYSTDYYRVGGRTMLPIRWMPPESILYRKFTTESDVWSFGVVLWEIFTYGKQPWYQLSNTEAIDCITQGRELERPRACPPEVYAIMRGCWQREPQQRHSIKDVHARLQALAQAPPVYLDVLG
T8 sequence (P50613 whole entry): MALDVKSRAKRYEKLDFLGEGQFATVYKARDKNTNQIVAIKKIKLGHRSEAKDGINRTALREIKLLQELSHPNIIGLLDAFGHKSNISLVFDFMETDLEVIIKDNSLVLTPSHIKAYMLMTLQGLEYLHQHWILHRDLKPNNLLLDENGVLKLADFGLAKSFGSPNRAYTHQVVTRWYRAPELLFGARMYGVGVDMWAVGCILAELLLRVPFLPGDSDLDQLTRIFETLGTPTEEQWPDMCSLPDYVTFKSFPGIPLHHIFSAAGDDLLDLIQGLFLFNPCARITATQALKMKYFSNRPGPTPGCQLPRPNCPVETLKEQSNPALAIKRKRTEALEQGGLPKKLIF
T3 sequence (P07333 20-972): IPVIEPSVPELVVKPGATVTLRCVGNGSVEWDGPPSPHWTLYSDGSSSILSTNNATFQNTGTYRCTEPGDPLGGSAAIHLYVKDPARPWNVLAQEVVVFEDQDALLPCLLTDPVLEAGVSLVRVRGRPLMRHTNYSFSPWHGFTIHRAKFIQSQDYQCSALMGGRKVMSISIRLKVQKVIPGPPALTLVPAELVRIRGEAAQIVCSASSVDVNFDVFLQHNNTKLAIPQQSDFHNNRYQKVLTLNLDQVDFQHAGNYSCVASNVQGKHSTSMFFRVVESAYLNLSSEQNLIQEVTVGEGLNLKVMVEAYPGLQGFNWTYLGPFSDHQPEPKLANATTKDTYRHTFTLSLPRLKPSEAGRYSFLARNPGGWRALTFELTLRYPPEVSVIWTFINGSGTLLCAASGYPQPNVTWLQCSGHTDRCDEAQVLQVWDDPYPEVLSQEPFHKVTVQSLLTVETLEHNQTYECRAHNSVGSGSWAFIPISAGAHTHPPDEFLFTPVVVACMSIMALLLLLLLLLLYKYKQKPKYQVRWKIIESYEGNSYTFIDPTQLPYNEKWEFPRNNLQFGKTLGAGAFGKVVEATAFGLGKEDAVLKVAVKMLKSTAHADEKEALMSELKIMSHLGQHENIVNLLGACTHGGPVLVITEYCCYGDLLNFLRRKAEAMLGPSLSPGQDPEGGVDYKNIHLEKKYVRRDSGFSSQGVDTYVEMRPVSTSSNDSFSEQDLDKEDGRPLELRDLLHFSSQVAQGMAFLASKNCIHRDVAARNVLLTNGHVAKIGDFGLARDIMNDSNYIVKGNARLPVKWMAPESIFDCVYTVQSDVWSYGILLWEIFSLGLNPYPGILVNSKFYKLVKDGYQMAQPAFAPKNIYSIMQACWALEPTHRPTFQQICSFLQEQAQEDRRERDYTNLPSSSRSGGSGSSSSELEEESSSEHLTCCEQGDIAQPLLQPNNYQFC
T4 sequence (O96013 whole entry): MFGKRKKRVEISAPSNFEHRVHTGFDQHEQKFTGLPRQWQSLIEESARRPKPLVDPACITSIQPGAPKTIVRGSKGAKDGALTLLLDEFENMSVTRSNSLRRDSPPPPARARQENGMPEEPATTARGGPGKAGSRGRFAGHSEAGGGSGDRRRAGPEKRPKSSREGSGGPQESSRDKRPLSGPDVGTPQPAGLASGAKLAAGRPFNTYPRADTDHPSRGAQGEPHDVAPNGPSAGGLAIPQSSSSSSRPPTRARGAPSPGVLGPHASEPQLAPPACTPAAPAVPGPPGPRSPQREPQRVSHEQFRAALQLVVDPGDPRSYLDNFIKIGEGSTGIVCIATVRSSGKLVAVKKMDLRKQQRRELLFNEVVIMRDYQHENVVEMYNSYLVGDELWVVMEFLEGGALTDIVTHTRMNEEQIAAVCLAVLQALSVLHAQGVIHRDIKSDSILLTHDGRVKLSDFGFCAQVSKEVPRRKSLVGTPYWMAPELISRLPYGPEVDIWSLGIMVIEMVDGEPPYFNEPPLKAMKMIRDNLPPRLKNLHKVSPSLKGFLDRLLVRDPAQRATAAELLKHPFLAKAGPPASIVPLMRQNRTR
T5 sequence (Q9BWU1 whole entry): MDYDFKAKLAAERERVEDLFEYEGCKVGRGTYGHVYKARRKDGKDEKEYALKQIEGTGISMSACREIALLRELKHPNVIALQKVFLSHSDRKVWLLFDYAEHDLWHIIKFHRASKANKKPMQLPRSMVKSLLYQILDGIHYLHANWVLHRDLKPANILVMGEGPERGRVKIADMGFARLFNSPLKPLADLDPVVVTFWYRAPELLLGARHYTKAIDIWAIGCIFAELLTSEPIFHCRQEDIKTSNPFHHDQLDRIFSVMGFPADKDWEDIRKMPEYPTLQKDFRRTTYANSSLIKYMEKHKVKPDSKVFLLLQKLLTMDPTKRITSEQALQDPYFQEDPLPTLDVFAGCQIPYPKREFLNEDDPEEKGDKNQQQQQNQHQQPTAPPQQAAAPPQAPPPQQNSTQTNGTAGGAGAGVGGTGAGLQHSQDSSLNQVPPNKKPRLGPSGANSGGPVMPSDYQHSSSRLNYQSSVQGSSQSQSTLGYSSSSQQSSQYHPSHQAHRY
T10 sequence (P28482 whole entry): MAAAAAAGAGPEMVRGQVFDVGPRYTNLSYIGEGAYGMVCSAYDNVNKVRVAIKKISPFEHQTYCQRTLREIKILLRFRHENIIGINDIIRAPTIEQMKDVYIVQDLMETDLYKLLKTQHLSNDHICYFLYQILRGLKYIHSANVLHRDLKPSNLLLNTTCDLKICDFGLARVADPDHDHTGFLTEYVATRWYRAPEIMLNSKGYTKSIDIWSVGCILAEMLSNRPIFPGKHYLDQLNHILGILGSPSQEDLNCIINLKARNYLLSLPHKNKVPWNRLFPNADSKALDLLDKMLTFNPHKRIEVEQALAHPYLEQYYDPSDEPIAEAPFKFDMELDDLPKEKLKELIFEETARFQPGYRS
T2 sequence (P49841 whole entry): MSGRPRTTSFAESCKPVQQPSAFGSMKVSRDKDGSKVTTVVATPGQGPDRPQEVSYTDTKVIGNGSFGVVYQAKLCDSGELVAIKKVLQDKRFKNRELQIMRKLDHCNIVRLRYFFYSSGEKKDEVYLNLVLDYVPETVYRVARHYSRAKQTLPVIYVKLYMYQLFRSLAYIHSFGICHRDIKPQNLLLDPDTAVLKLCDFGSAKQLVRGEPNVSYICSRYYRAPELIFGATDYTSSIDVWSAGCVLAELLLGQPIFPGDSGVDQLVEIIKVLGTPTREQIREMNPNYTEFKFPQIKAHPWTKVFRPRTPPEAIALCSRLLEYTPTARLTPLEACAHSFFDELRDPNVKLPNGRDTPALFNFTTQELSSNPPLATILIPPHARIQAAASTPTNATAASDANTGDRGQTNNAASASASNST
T6 sequence (Q9H4B4 whole entry): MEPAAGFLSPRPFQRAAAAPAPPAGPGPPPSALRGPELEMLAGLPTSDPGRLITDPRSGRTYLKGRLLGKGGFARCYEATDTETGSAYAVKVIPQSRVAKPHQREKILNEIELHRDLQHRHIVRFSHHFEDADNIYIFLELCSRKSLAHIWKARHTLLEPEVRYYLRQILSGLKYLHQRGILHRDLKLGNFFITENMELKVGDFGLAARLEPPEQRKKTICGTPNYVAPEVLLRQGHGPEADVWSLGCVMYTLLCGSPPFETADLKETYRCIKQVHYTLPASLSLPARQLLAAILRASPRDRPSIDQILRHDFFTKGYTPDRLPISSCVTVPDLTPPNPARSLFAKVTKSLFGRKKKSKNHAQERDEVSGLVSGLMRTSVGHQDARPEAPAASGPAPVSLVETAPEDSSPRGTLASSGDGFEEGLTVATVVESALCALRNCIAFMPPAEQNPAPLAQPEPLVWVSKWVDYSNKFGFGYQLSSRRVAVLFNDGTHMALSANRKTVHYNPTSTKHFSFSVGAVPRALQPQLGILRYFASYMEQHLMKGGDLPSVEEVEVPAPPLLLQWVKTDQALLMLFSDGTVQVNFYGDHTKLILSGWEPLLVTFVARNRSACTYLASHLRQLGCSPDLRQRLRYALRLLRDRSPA

For `CC(C)Cn1ncc2cc(Cc3ccc(F)cc3F)c(C(=O)NCCN(C)C)cc21` [Compound 94, 5-(2,4-Difluorobenzyl)-N-(2-(dimethylamino)ethyl)-1-isobutyl-1H-indazole-6-carboxamide], the “RA @ 1000nM” value [1] was 100%, the “RA @ 10000nM” value [1] was 100% and the “RA @ 1000nM” value [2] was 91%. The “RA @ 10000nM” value [2] was 97%, the “RA @ 1000nM” value [3] was 100% and the “RA @ 10000nM” value [3] was 86%. The “RA @ 1000nM” value [4] was 97%, the “RA @ 10000nM” value [4] was 96% and the “RA @ 1000nM” value [5] was 100%. For the same compound, the “RA @ 10000nM” value [5] was 89%, the “RA @ 1000nM” value [6] was 100% and the “RA @ 10000nM” value [6] was 97%. For the same compound, the “RA @ 1000nM” value [7] was 81%, the “RA @ 10000nM” value [7] was 90% and the “RA @ 1000nM” value [8] was 79%. For the same compound, the “RA @ 10000nM” value [8] was 86%, the “RA @ 1000nM” value [9] was 84% and the “RA @ 10000nM” value [9] was 68%. For the same compound, the “RA @ 1000nM” value [10] was 100%, the “RA @ 10000nM” value [10] was 98% and the “RA @ 1000nM” value [11] was 87%. For the same compound, the “RA @ 10000nM” value [11] was 87%, the “RA @ 1000nM” value [12] was 100% and the “RA @ 10000nM” value [12] was 100%. For the same compound, the “RA @ 1000nM” value [13] was 98%, the “RA @ 10000nM” value [13] was 94% and the “RA @ 1000nM” value [14] was 86%. For the same compound, the “RA @ 10000nM” value [14] was 65%, the “RA @ 1000nM” value [15] was 100% and the “RA @ 10000nM” value [15] was 100%.

For `CN(C)CCNC(=O)c1cc2c(cnn2CC2CCCCC2)cc1Cc1ccc(F)cc1F` [Compound 95, 1-(Cyclohexylmethyl)-5-(2,4-difluorobenzyl)-N-(2-(dimethylamino)ethyl)-1H-indazole-6-carboxamide], the “RA @ 1000nM” value [1] was 100%, the “RA @ 10000nM” value [1] was 100% and the “RA @ 1000nM” value [2] was 100%. The “RA @ 10000nM” value [2] was 80%, the “RA @ 1000nM” value [3] was 100% and the “RA @ 10000nM” value [3] was 79%. For the same compound, the “RA @ 1000nM” value [4] was 100%, the “RA @ 10000nM” value [4] was 88% and the “RA @ 1000nM” value [5] was 92%. For the same compound, the “RA @ 10000nM” value [5] was 100%, the “RA @ 1000nM” value [6] was 88% and the “RA @ 10000nM” value [6] was 100%. For the same compound, the “RA @ 1000nM” value [7] was 84%, the “RA @ 10000nM” value [7] was 81% and the “RA @ 1000nM” value [8] was 88%. For the same compound, the “RA @ 10000nM” value [8] was 77%, the “RA @ 1000nM” value [9] was 99% and the “RA @ 10000nM” value [9] was 71%. For the same compound, the “RA @ 1000nM” value [10] was 100%, the “RA @ 10000nM” value [10] was 100% and the “RA @ 1000nM” value [11] was 96%. The “RA @ 10000nM” value [11] was 90%, the “RA @ 1000nM” value [12] was 100% and the “RA @ 10000nM” value [12] was 90%. For the same compound, the “RA @ 1000nM” value [13] was 100%, the “RA @ 10000nM” value [13] was 92% and the “RA @ 1000nM” value [14] was 94%. For the same compound, the “RA @ 10000nM” value [14] was 94%, the “RA @ 1000nM” value [15] was 100% and the “RA @ 10000nM” value [15] was 100%.
